Read-outs that look alike come from different tables or passages of the source.
How the values were obtained:
Test in all cases: Crossreactive receptor transcriptional assay (Gal4 hybrid)
Format in all cases: cell-based
[1] = biological target: T1, hERα (Estrogen receptor-alpha) (Homo sapiens, UniProt P03372)
T1 construct: 249-595; expressed in transfected cells; host or cells: CHO cells, transient transfection
T1 sequence (P03372 249-595): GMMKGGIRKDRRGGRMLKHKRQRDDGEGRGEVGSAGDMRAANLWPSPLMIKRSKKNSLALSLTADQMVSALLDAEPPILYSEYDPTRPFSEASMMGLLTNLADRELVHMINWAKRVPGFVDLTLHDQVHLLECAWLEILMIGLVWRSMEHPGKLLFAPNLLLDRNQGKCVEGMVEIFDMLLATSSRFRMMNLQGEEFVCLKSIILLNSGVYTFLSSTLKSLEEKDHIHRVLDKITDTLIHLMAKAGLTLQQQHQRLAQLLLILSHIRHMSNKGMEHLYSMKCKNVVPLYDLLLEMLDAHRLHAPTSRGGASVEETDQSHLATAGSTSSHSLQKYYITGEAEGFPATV

hPPARα = biological target: T2, hPPARα (Homo sapiens, UniProt Q07869)
T2 construct: 166-468; expressed in transfected cells; host or cells: CHO cells, transient transfection
T2 sequence (Q07869 166-468): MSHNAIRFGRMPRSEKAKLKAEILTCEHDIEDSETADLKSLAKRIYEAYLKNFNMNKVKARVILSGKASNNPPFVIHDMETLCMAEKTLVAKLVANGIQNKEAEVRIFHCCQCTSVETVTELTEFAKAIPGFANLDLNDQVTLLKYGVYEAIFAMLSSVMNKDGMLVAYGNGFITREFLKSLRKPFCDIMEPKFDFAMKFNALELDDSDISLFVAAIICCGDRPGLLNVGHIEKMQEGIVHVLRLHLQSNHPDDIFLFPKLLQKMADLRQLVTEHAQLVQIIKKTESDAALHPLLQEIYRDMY

hPPARδ = biological target: T3, hPPARδ (Homo sapiens, UniProt Q03181)
T3 construct: 138-441; expressed in transfected cells; host or cells: CHO cells, transient transfection
T3 sequence (Q03181 138-441): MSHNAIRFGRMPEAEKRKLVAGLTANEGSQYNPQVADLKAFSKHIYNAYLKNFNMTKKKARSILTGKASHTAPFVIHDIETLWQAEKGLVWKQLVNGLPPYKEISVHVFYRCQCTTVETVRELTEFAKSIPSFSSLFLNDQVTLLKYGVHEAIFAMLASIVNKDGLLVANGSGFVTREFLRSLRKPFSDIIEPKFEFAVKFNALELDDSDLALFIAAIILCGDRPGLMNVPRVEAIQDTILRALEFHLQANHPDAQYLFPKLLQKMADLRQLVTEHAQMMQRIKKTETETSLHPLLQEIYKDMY

[2] = biological target: T4, hPR (progesterone receptor) (Homo sapiens, UniProt P06401)
T4 construct: 687-933; expressed in transfected cells; host or cells: CHO cells, transient transfection
T4 sequence (P06401 687-933): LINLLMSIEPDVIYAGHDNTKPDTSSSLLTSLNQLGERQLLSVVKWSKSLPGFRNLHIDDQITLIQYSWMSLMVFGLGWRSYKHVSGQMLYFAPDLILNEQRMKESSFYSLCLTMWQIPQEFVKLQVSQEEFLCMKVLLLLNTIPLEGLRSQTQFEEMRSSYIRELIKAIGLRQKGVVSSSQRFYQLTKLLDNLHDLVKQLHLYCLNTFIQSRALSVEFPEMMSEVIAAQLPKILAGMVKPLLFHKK

[3] = Table 6, read-out: Potency (EC50) at hERα
[4] = Table 6, RORγ ligands: no significant activity at 20 μM, read-out: Potency (EC50) at hPPARα
[5] = Table 6, RORγ ligands: no significant activity at 20 μM, read-out: Potency (EC50) at hPPARδ
[6] = Table 6, read-out: Potency (EC50) at hPR

Row | EC50 [1, 3] [µM] | EC50 (hPPARα; [4]) [µM] | EC50 (hPPARδ; [5]) [µM] | EC50 [2, 6] [µM] | Compound | EC50 [1] [µM] | EC50 (hPPARα) [µM] | EC50 (hPPARδ) [µM] | EC50 [2] [µM]
1 | > 10 | > 10 | > 10 | > 10 | COc1c(C=NNc2nc(N3CCCCC3)nc(N3CCCCC3)n2)cccc1[N+](=O)[O-] [OR-2161, N-(4,6-Di-piperidin-1-yl-[1,3,5]triazin-2-yl)-N′-(2-methoxy-3-nitro-benzylidene)-hydrazine] | – | – | – | –
2 | > 10 | > 10 | > 10 | > 10 | O=S(=O)(c1ccccc1)N(CC(F)(F)F)c1ccc(C(O)(C(F)(F)F)C(F)(F)F)cc1 [Compound T0901317, N-(2,2,2-Trifluoro-ethyl)-N-[4-(2,2,2-trifluoro-1-hydroxy-1-trifluoromethyl-ethyl)-phenyl]-benzenesulfonamide, reference compound] | – | – | – | –
3 | > 10 | > 10 | > 10 | > 10 | CCN(c1ccc(C(O)(C(F)(F)F)C(F)(F)F)cc1)S(=O)(=O)c1ccc([N+](=O)[O-])cc1 [OR-1050, N-Ethyl-4-nitro-N-[4-(2,2,2-trifluoro-1-hydroxy-1-trifluoromethyl-ethyl)-phenyl]-benzenesulfonamide] | – | – | – | –
4 | – | – | – | – | C[C@@H]1CC[C@@]2(OC1)O[C@H]1C[C@H]3[C@@H]4CC[C@H]5C[C@@H](O)CC[C@]5(C)[C@H]4C[C@@H](O)[C@]3(C)[C@H]1[C@@H]2C [OR-885, 5α,20α, 22α, 25D-SPIROSTAN-3β, 12β-DIOL] | > 10 | > 10 | > 10 | > 10
5 | > 10 | > 10 | > 10 | > 10 | CCn1c(CNc2ccc(Cl)cc2)nnc1SCC(=O)Nc1cccc2ccccc12 [OR-133008, 2-{5-[(4-Chloro-phenylamino)-methyl]-4-ethyl-4H-[1,2,4]triazol-3-ylsulfanyl}-N-naphthalen-1-yl-acetamide] | – | – | – | –

Row | Compound | EC50 [1, 3] [µM] | EC50 (hPPARα; [4]) [µM] | EC50 (hPPARδ; [5]) [µM] | EC50 [2, 6] [µM] | EC50 [1] [µM] | EC50 (hPPARα) [µM] | EC50 (hPPARδ) [µM] | EC50 [2] [µM]
6 | COC(C)CCC(C)C1CCC2C3CC(O)C4CC(O)CCC4(C)C3CCC12C (stereo not shown) [OR-12872, 17-(4-Methoxy-1-methyl-pentyl)-10,13-dimethyl-hexadecahydro-cyclopenta[a]phenanthrene-3,6-diol] | > 10 | > 10 | > 10 | > 10 | – | – | – | –
7 | CC(=O)O[C@H]1CC[C@@]2(C)C(CC[C@]3(C)C2C(=O)C=C2C4[C@@H](C)[C@H](C)CC[C@]4(C(=O)O)CC[C@]23C)C1(C)C (stereo in doubt) [OR-13571, 10-Acetoxy-1,2,6a,6b,9,9,12a-heptamethyl-13-oxo-1,3,4,5,6,6a,6b,7,8,8a,9,10,11,12,12a,12b,13,14b-octadecahydro-2H-picene-4a-carboxylic acid] | > 10 | > 10 | > 10 | > 10 | – | – | – | –

Reference: patent US8389739B1, “Modulators of retinoid-related orphan receptor gamma” (Orphagen Pharmaceuticals, priority 2006, dated 2013)
